Test results taken from patent US20160257676A1, “Aminoisoquinoline Derivatives as Protein Kinase Inhibitors” (ETERNITY BIOSCIENCE INC., priority 2012, published 2016).

Assays:
A375 cells = assay: Cell proliferation assay (CellTiter-Glo), A375 cells; assay type: cell-based; conditions: Homo sapiens, A-375, 72 h, 3-day treatment, vs vehicle control (1% DMSO), read-out: A375 cell growth IC50
Description: Cell Proliferation Assay:
A375, Colo-205, Calu-6, and SW-480 cells were purchased from American Type Culture Collection (USA). All cells were cultured in the recommended medium and serum concentration. Cells were maintained at 37° C. in a humidified atmosphere with 5% CO2. For cell proliferation assay, cells were seeded in 96-well pates at a density of 1,000 to 5,000 cells per well and cultured overnight at 37° C. in medium supplemented with 5-10% FBS. On the next day, the test articles at various concentrations or vehicle control (1% DMSO) were added into cell culture. After 3-day treatment, the growth of cells was assayed by the CellTiter-Glo® Luminestceaent Cell Viability Assay (Promega).

BRAF^V600E = BRAF^V600E (Homo sapiens, UniProt P15056, V600E); assay: BRAF^V600E enzymatic activity assay (LanthaScreen kinase assay kit, TR-FRET)
BRAF^V600E, sequence (P15056 whole entry V600E): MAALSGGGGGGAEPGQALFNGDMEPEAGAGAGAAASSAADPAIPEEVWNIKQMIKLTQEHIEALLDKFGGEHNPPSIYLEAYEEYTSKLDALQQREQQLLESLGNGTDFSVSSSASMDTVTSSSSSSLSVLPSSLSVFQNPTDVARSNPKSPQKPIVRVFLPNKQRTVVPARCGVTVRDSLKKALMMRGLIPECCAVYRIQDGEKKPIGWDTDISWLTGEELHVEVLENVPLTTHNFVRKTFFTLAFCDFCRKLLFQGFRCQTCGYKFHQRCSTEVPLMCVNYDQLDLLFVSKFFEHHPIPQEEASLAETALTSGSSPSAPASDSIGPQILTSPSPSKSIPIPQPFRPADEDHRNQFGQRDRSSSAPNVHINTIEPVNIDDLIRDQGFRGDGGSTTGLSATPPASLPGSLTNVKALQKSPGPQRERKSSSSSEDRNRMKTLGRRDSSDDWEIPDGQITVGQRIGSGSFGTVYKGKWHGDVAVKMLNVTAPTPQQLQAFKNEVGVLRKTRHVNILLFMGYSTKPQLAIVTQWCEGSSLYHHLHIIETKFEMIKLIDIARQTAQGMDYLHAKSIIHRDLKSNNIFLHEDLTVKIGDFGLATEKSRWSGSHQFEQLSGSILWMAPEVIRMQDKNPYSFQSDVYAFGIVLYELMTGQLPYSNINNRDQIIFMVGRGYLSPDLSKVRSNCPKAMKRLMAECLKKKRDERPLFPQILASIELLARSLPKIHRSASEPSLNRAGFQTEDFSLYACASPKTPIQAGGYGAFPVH

| IC50 (A375 cells) [nM] | IC50 (BRAF^V600E) [nM] | SMILES |
| --- | --- | --- |
| 103 | 8690 | CCCS(=O)(=O)Nc1ccc(F)c(-c2ccc3cc(N)ncc3c2)c1F [Example 1, N-(3-(3-aminoisoquinolin-7-yl)-2,4-difluorophenyl)propane-1-sulfonamide] |
| 775 | – | CCCS(=O)(=O)Nc1ccc(F)c(-c2ccc3cc(NC[C@H](C)NC(=O)OC)ncc3c2)c1F [Example 2, (S)-methyl-1-(7-(2,6-difluoro-3-(propylsulfonamido)phenyl)isoquinolin-3-ylamino)propan-2-ylcarbamate] |
| 1000 | 799 | CCCS(=O)(=O)Nc1ccc(F)c(-c2cc3cnc(N)cc3cc2OC)c1F [Example 3, N-(3-(3-amino-6-methoxyisoquinolin-7-yl)-2,4-difluorophenyl)propane-1-sulfonamide] |
| 19 | 212 | CCCS(=O)(=O)Nc1ccc(F)c(-c2cc3cnc(NC[C@H](C)NC(=O)OC)cc3cc2OC)c1F [Example 4, methyl N-[(1S)-2-[[7-[2,6-difluoro-3-(propylsulfonylamino)phenyl]-6-methoxy-3-isoquinolyl]amino]-1-methyl-ethyl]carbamate] |
| 726 | 3660 | CCCS(=O)(=O)Nc1ccc(F)c(-c2cc3cnc(NC[C@@H](C)NC(=O)OC)cc3cc2OC)c1F [Example 5, methyl N-[(1R)-2-[[7-[2,6-difluoro-3-(propylsulfonylamino)phenyl]-6-methoxy-3-isoquinolyl]amino]-1-methyl-ethyl]carbamate] |
| 158 | 100 | CCCS(=O)(=O)Nc1ccc(F)c(-c2cc3cnc(NC[C@H](C)NC(=O)OC)cc3cc2OCCF)c1F [Example 6, methyl N-[(1S)-2-[[7-[2,6-difluoro-3-(propylsulfonylamino)phenyl]-6-(2-fluoroethoxy)-3-isoquinolyl]amino]-1-methyl-ethyl]carbamate] |
| 306 | 560 | CCCS(=O)(=O)Nc1ccc(F)c(-c2cc3cnc(NC[C@H](C)NC(=O)OC)cc3cc2CC)c1F [Example 7, methyl N-[(1S)-2-[[7-[2,6-difluoro-3-(propylsulfonylamino)phenyl]-6-ethyl-3-isoquinolyl]amino]-1-methyl-ethyl]carbamate] |
| 227 | 70 | CCCS(=O)(=O)Nc1ccc(F)c(-c2ccc3c(cnc4[nH]ncc43)c2)c1F [Example 8, N-(2,4-difluoro-3-(3H-pyrazolo[3,4-c]isoquinolin-7-yl)phenyl)propane-1-sulfonamide] |
| 145 | – | CCCS(=O)(=O)Nc1ccc(F)c(-c2ccc3c(cnc4[nH]nc(Br)c43)c2)c1F [Example 9, N-(3-(1-bromo-3H-pyrazolo[3,4-c]isoquinolin-7-yl)-2,4-difluorophenyl)propane-1-sulfonamide] |
| 145 | 2710 | CCCS(=O)(=O)Nc1ccc(F)c(-c2ccc3c(cnc4[nH]nc(C5CC5)c43)c2)c1F [Example 10, N-(3-(1-cyclopropyl-3H-pyrazolo[3,4-c]isoquinolin-7-yl)-2,4-difluorophenyl)propane-1-sulfonamide] |
| 95 | 18.3 | CCCS(=O)(=O)Nc1ccc(F)c(-c2ccc3c(cnc4[nH]ncc43)c2)c1Cl [Example 11, N-(2-chloro-4-fluoro-3-(3H-pyrazolo[3,4-c]isoquinolin-7-yl)phenyl)propane-1-sulfonamide] |
| 144 | – | CCCS(=O)(=O)Nc1ccc(F)c(-c2ccc3c(cnc4[nH]nc(Br)c43)c2)c1Cl [Example 12, N-(3-(1-bromo-3H-pyrazolo[3,4-c]isoquinolin-7-yl)-2-chloro-4-fluorophenyl)propane-1-sulfonamide] |
| 64 | 20 | CCCS(=O)(=O)Nc1ccc(F)c(-c2ccc3c(cnc4[nH]nc(C5CC5)c43)c2)c1Cl [Example 13, N-(2-chloro-3-(1-cyclopropyl-3H-pyrazolo[3,4-c]isoquinolin-7-yl)-4-fluorophenyl)propane-1-sulfonamide] |
| 66 | 50 | O=S(=O)(CCCF)Nc1ccc(F)c(-c2ccc3c(cnc4[nH]ncc43)c2)c1F [Example 14, N-(2,4-difluoro-3-(3H-pyrazolo[3,4-c]isoquinolin-7-yl)phenyl)-3-fluoropropane-1-sulfonamide] |
| 23 | 6.6 | O=S(=O)(CCCF)Nc1ccc(F)c(-c2ccc3c(cnc4[nH]ncc43)c2)c1Cl [Example 15, N-(2-chloro-4-fluoro-3-(3H-pyrazolo[3,4-c]isoquinolin-7-yl)phenyl)-3-fluoropropane-1-sulfonamide] |
| 341 | 41.3 | CCCS(=O)(=O)Nc1ccc(Cl)c(-c2ccc3c(cnc4[nH]ncc43)c2)c1Cl [Example 16, N-(2,4-dichloro-3-(3H-pyrazolo[3,4-c]isoquinolin-7-yl)phenyl)propane-1-sulfonamide] |
| 131 | 118 | CCCS(=O)(=O)Nc1ccc(Cl)c(-c2ccc3c(cnc4[nH]ncc43)c2)c1F [Example 17, N-(4-chloro-2-fluoro-3-(3H-pyrazolo[3,4-c]isoquinolin-7-yl)phenyl)propane-1-sulfonamide] |
| 1000 | 3740 | O=S1(=O)CCCN1c1ccc(F)c(-c2ccc3c(cnc4[nH]ncc43)c2)c1F [Example 18, N-(2,4-difluoro-3-(3H-pyrazolo[3,4-c]isoquinolin-7-yl)phenyl)-1,3-propanesultam] |
| 77 | 60 | CCCS(=O)(=O)Nc1ccc(F)c(-c2cc3cnc4[nH]ncc4c3cc2OC)c1F [Example 19, N-(2,4-difluoro-3-(8-methoxy-3H-pyrazolo[3,4-c]isoquinolin-7-yl)phenyl)propane-1-sulfonamide] |
| 47 | 10 | CCCS(=O)(=O)Nc1ccc(F)c(-c2cc3cnc4[nH]ncc4c3cc2OC)c1Cl [Example 20, N-(2-chloro-4-fluoro-3-(8-methoxy-3H-pyrazolo[3,4-c]isoquinolin-7-yl)phenyl)propane-1-sulfonamide] |
| 94 | 70 | COc1cc2c(cnc3[nH]ncc32)cc1-c1c(F)ccc(NS(=O)(=O)CCCF)c1F [Example 21, N-(2,4-difluoro-3-(8-methoxy-3H-pyrazolo[3,4-c]isoquinolin-7-yl)phenyl)-3-fluoropropane-1-sulfonamide] |
| 66 | 12 | COc1cc2c(cnc3[nH]ncc32)cc1-c1c(F)ccc(NS(=O)(=O)CCCF)c1Cl [Example 22, N-(2-chloro-4-fluoro-3-(8-methoxy-3H-pyrazolo[3,4-c]isoquinolin-7-yl)phenyl)-3-fluoropropane-1-sulfonamide] |
| 100 | – | CCCS(=O)(=O)Nc1ccc(F)c(-c2cc3cnc4[nH]nc(C5CC5)c4c3cc2OC)c1F [Example 23, N-(3-(1-cyclopropyl-8-methoxy-3H-pyrazolo[3,4-c]isoquinolin-7-yl)-2,4-difluorophenyl)propane-1-sulfonamide] |
| 284 | – | CCCS(=O)(=O)Nc1ccc(F)c(-c2cc3cnc4[nH]nc(C5CC5)c4c3cc2OC)c1Cl [Example 24, N-(2-chloro-3-(1-cyclopropyl-8-methoxy-3H-pyrazolo[3,4-c]isoquinolin-7-yl)-4-fluorophenyl)propane-1-sulfonamide] |
| 25 | – | COc1cc2c(cnc3[nH]nc(C4CC4)c32)cc1-c1c(F)ccc(NS(=O)(=O)CCCF)c1Cl [Example 25, N-(2-chloro-3-(1-cyclopropyl-8-methoxy-3H-pyrazolo[3,4-c]isoquinolin-7-yl)-4-fluorophenyl)-3-fluoropropane-1-sulfonamide] |
| 29.7 | 48.8 | COc1cc2c(cnc3[nH]nc(C4CC4)c32)cc1-c1c(F)ccc(NS(=O)(=O)CCCF)c1F [Example 26, N-(3-(1-cyclopropyl-8-methoxy-3H-pyrazolo[3,4-c]isoquinolin-7-yl)-2,4-difluorophenyl)-3-fluoropropane-1-sulfonamide] |
| 1000 | 690 | CCCS(=O)(=O)Nc1ccc(F)c(-c2ccc3c(cnc4[nH]ccc43)c2)c1F [Example 27, N-(2,4-difluoro-3-(3H-pyrrolo[2,3-c]isoquinolin-7-yl)phenyl)propane-1-sulfonamide] |
| 309 | 389 | CCCS(=O)(=O)Nc1ccc(F)c(-c2ccc3c(cnc4[nH]cnc43)c2)c1F [Example 28, N-(2,4-difluoro-3-(3H-imidazo[4,5-c]isoquinolin-7-yl)phenyl)propane-1-sulfonamide] |
